We go through two molecules from patent publication US7138122B2, “Therapeutic systems” (Enzacta R & D Limited, priority 1997, dated 2006).

In series [1] the target is T1, NQO2 (Homo sapiens, UniProt P16083).
T1 sequence (P16083 1-231): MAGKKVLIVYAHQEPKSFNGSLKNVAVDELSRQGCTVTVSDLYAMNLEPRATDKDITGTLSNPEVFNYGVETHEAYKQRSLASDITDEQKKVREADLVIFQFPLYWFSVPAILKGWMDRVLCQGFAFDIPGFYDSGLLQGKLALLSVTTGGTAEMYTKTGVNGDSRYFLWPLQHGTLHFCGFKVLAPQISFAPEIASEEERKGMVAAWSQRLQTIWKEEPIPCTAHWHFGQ
In words: Co-substrate activity with NQO2 for reduction of CB 1954 (HPLC). It counts as biochemical. More on the design: restriction site were added to the 5′ and 3′-ends of the full-length NQO2 cDNA; made in house; host or cells: E. coli (expression vector pKK233-2, plasmid pKK-hNQO2). The protocol:
The effect of various co-substrates on CB 1954 was determined as above but NADH. NADPH or NMNH was substituted for the NRH and CB 1954 was used at a fixed concentration of 100 μM. The enzyme concentration was 5 μg/ml. The reduction of CB 1954 was monitored by measuring both the decrease in its corresponding peak area on the HPLC trace and the increase in the area of the peak corresponding to the reduction product 5-(aziridin-1-yl)-4-hydroxylamino-2-nitrobenzamide. The relative rates of reduction were determined at 10% reduction of CB1954 from a graph plotting CB 1954 reduction against time. The time axis was normalised to the equivalent of 10 μg/ml of NQO2.
The activity of various potential co-substrates was determined by HPLC analysis in the presence of CB1954 and NQO2. To determine the kinetic parameters NQO2 (1 μg/ml) was incubated with NRH (5000 μM) and CB1954 at different concentrations (0.1 to 2 mM) in sodium phosphate buffer (10MM, pH 7) at 37° C. At various times, aliquots (10 μl) were injected onto a Partisphere SCX (250×4.5 mm) HPLC column (Whatman Ltd) and eluted isocratically (1.5 ml/min) with 50 mM aqueous sodium phosphate containing 1% methanol. The eluate was continuously monitored for absorption at 320 nm. […] The reduction of CB1954 was monitored by quantifying the increase in the area of the peak corresponding to the reduction product 5-(aziridin-1-yl)-4-hydroxylamino-2-nitrobenzamide. All the assays were initiated by addition of the enzyme and performed in duplicate. The kinetic parameters were calculated by plotting the initial rate of reduction at each concentration of CB1954 against that concentration and fitting the data to the Michaelis-Menton equation using a computer programme (Fig P). Values were confirmed by transforming the data and fitting it to various linear forms of the equation by regression analysis.
The effect of various co-substrates on CB1954 reduction was determined as above but the co-substrate was substituted for the NRH and C1954 was used at a fixed concentration of 100 μM. The enzyme concentration was 1 or 5 μg/ml. The reduction of CB1954 was monitored by measuring both the decrease in its corresponding peak area on the HPLC trace and the increase in the area of the peak corresponding to the reduction product 5-(aziridin-1-yl)-4-hydroxylamino-2-nitrobenzamide. The relative rates of reduction were determined at 10% reduction of CB1954 from a graph plotting CB1954 reduction against time. The time axis was normalised to the equivalent of 10 μg/ml of NQO2. The kinetic parameters of NQO2 for the various co-substrates was determined as for CB1954 except that the initial concentration of CB1954 was constant at 100 μm whilst that of the co-substrate was varied from 0 to 2 mM. The enzyme concentration was 0.5 μg/ml.

Series [2] has as its system NQO2 expressing V79 cells. The series is described as follows: Cytotoxicity of CB 1954 with NRH in NQO2-transfected V79 cells. In kind it is cell-based, Chinese hamster. The settings on record: 100 μM NRH added, 72 hours. As to the method:
Transfection quality H6 DNA was prepared using the QIAGEN endotoxin-free maxiprep kit. Chinese hamster lung embryo fibroblasts (V79) were transfected with the purified H6 using DOTAP liposomal reagent according to the manufacturer's instructions (Boehringer Mannheim). Two days after transfection puromycin-resistant clones were selected in DMEM/10% FCS containing 10 μg/ml puromycin (Sigma) and grown on to establish cell lines designated V79TM1, 5, 3, 7, 9, 11 and 13 respectively and maintained in selective medium.

The test system of series [3] is non-transfected V79 cells. In words: Cytotoxicity of CB 1954 with NRH in non-transfected V79 cells. It counts as cell-based, Chinese hamster. The conditions noted are these: 100 μM NRH added, 72 hours.
For series [4], the target named is T2, Rat DT-diaphorase (Rattus norvegicus, UniProt P05982).
T2 sequence (P05982 2-274 limits assumed): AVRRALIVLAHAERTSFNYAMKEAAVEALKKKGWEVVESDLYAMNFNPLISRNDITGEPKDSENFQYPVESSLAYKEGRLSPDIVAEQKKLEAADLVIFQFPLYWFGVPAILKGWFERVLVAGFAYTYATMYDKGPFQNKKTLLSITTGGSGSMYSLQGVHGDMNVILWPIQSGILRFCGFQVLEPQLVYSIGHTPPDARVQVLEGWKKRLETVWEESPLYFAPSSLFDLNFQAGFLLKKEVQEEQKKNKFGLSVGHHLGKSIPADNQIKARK
The conditions noted are these: with respect to CB 1954; NADH as co-substrate; cited from earlier work.

For series [5], the target named is Human DT-diaphorase (Homo sapiens, UniProt P15559). The conditions noted are these: with respect to CB 1954; NADH as co-substrate; cited from earlier work.
Human DT-diaphorase, sequence (P15559 whole entry): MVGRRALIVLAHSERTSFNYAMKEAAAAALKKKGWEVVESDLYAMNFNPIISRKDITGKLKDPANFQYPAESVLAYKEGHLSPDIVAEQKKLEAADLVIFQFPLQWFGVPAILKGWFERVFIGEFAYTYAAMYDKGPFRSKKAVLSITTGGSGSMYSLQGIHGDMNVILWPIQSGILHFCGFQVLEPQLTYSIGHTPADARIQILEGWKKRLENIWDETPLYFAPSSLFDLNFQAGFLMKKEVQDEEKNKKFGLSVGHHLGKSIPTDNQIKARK
The target of series [6] is E. coli nitroreductase (Escherichia coli, UniProt P38489). The conditions noted are these: with respect to CB 1954; NADH as co-substrate; cited from earlier work.
E. coli nitroreductase, sequence (P38489 whole entry): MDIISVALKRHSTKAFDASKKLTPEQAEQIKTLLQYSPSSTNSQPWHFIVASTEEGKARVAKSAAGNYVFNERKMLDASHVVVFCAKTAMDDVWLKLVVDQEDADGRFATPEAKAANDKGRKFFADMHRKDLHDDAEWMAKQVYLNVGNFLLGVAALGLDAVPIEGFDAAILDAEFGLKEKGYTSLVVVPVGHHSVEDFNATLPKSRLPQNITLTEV
The subject of series [7] is human T98G gliobastoma cells. In words: Cytotoxicity of CB 1954 on T98G glioblastoma cells with NQO2 co-substrates. The settings on record: no co-substrate.
Experimental: Cells in exponential phase of growth were trypsinised, seeded in 96 well plates at a density of 5×10^4 cells per well (100 μl) and permitted to recover for 24 hours. Then 50 μl of medium was removed and replaced with 50 μl of fresh medium containing 200 μM NRH to give a final concentration of 100 μM. Serial dilutions of CB 1954 (8 of 3.66×) were performed in situ giving final concentrations of 1000–0.46 μM. Cells were then incubated with drug for 72 hours at 37° C. The plates were fixed and stained with sulforhodamine-B; the absorption at 590 nm read and results were expressed as percentage of control growth. The IC50 values were evaluated by interpolation.
The cells were treated as for V79 cells but were treated for 144 hr in presence of CB 1954.

For orientation: Km means the substrate concentration at which the rate is half of its maximum. One may read the kcat as the number of substrate molecules converted per active site and unit of time at saturation.

With `NC(=O)C1=CN([C@@H]2O[C@H](CO)[C@@H](O)[C@H]2O)C=CC1` [NRH, dihydronicotinamide riboside], the “RELATIVE RATE OF REDUCTION” value in series [1] (CB 1954 reduction by NQO2, co-substrate initial 500 μM, CB 1954 initial 100 μM) was 70.0. In series [1] (of NQO2 for the co-substrate, CB1954 as electron acceptor (100 μM)), the Km worked out at 28 ± 2 µM. Also, the kcat in series [1] (of NQO2 with the co-substrate, CB1954 as electron acceptor) amounted to 6 s⁻¹. The “increase of the cytotoxicity of CB 1954” value is “greater than 100 fold” in series [2] (V79TM5 and 13 cell lines); “at least 100 fold” in series [2] (V79TM13 cells); less than 3 fold in series [3].

For the molecule `NC(=O)c1cc(N2CC2)c([N+](=O)[O-])cc1[N+](=O)[O-]` [CB 1954, 5-(aziridin-1-yl)-2,4-dinitrobenzamide], the Michaelis-Menten constant (Km) in series [4] is 826 µM; in series [5] it was 1400 µM. Also, the kcat in series [4] was 0.0683 s⁻¹; in series [5], 0.0107 s⁻¹; in series [6], 6.0 s⁻¹. For the same molecule, the “toxicity of CB1954 alone” value in series [7] is recorded as “not toxic”.
